Results on ten molecules are retold here after US11976068B2 (CHIMERIX, INC., priority 2015, dated 2024).

Like-named read-outs stand apart in the source and are kept apart here.

One series deals with T1, human BCRP (Homo sapiens, UniProt Q9UNQ0).
T1 sequence (Q9UNQ0 1-655): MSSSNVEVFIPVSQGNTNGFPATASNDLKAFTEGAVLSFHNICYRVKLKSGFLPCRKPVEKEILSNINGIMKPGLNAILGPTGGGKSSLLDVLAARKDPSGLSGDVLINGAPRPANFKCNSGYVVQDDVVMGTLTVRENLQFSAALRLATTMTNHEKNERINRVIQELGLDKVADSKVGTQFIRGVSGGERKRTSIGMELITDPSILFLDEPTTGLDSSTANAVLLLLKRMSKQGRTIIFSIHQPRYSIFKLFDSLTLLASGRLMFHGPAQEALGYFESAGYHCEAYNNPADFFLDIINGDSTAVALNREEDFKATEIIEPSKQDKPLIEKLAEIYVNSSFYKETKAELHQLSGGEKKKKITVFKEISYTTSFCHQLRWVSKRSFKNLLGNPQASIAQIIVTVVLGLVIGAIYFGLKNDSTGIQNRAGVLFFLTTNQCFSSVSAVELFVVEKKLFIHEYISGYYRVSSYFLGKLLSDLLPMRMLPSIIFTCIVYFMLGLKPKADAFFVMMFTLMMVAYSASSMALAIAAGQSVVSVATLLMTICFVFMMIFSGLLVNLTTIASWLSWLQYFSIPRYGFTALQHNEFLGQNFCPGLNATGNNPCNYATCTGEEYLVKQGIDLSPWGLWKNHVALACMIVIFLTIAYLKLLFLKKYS
Briefly: BCRP inhibition, bidirectional permeability of prazosin in MDCKII-BCRP monolayers. As to conditions: prazosin probe; inhibitor 1 μM Ko134 (positive control).

In another series the test system is human cancer cells. Briefly: Viability of human cancer cells at 72 hours post-treatment. Type of series: cell-based. The settings on record: change in potency relative to ONC201; viability at 72 hours post-treatment. On the procedure:
A number of exemplary analogs of compound (1) were prepared based on the syntheses described here. For each of these compounds, the viability of human cancer cells at 72 hours post-treatment with the compound was measured.

Series [1] deals with human colon cancer xenograft. Briefly: Human colon cancer xenograft-bearing mice. As to conditions: single dose, oral or intraperitoneal, compared to vehicle-treated control cohorts. The series is classed as in vivo.
A further series concerns the target human MDR1 (Homo sapiens, UniProt P08183). The settings on record: digoxin probe; inhibitor 10 μM Valspodar (positive control).
The next series concerns CYP 1A2. Briefly: CYP mRNA induction in cryopreserved human hepatocytes.
The subject of a further series is CYP 2B6. Described as above.
Another series concerns CYP 3A4. Described as above.
[2] abbreviates: donor CDP, NC: flumazenil (25 μM).
Setting [3] is: donor two, NC: flumazenil (25 μM).

human MDR1, sequence (P08183 whole entry): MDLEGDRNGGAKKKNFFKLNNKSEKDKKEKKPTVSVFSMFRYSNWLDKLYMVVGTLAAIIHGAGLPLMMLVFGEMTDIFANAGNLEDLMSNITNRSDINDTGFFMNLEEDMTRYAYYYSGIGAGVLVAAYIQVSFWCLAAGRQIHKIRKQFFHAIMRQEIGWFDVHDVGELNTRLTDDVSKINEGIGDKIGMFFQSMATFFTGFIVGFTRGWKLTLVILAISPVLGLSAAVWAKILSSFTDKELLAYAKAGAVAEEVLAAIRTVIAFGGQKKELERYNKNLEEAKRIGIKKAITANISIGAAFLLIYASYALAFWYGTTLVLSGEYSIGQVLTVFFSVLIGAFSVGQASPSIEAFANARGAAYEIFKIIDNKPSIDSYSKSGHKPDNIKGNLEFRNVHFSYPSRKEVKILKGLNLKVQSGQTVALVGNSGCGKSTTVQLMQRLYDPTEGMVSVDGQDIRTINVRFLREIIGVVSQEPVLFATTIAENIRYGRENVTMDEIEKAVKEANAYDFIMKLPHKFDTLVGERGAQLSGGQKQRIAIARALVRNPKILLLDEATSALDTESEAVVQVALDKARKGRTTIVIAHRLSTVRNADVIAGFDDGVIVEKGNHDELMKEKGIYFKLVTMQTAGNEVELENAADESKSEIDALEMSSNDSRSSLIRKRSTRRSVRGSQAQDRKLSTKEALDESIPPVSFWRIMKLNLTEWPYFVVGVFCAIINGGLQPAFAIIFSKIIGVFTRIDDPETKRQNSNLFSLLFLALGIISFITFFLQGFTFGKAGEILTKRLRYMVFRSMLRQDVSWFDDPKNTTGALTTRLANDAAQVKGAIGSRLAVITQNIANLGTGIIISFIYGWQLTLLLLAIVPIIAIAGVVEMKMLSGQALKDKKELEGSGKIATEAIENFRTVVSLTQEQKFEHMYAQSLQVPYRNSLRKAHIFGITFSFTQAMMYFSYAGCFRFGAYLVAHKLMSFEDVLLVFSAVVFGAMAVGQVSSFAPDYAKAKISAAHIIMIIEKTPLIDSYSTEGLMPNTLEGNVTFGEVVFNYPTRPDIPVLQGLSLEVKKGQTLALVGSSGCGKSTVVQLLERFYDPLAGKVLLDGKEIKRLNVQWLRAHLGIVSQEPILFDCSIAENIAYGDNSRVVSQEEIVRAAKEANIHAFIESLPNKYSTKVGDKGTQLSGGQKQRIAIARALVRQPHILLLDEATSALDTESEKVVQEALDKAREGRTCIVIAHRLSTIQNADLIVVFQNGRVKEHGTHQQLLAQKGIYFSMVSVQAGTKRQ

As to `CC(C)C[C@H]1c2[nH]c3ccccc3c2C[C@H]2C(=O)N[C@@H](CCC(=O)OC(C)(C)C)C(=O)N21` [Ko134, reference compound], on human BCRP, the “% Inhibition (Efflux Ratio)” value was determined as 98.7%.

As to `O=C1C2=C(CCN(Cc3ccccc3)C2)N2CCN=C2N1Cc1cc(F)cc(F)c1` [ONC210], the “Relative Potency” value with human cancer cells was “A (A Indicates a potency increase of >2-fold of ONC201)”.

On to `O=C1C2=C(CCN(Cc3ccccc3)C2)N2CCN=C2N1Cc1ccc(Cl)c(Cl)c1` [ONC211], for which, in the series on human cancer cells, the “Relative Potency” value is recorded as “A (A Indicates a potency increase of >2-fold of ONC201)”.

Consider `O=C1C2=C(CCN(Cc3ccccc3)C2)N2CCN=C2N1Cc1ccc(C(F)(F)F)cc1` [ONC212], for which the tumor volume result in series [1] was “significant reduction of tumor volume”.

With `O=C1C2=C(CCN(Cc3ccccc3)C2)N2CCN=C2N1Cc1ccccc1F` [ONC217], in the series with human cancer cells, the “Relative Potency” value was “B (B Indicates potency that is within 2-fold of ONC201)”.

Consider `O=C1C2=C(CCN(Cc3ccccc3)C2)N2CCN=C2N1CC1CCON1` (stereo not drawn) [ONC222], for which the “Relative Potency” value in the series with human cancer cells is on record as “B (B Indicates potency that is within 2-fold of ONC201)”.

`C/C=C/C[C@@H](C)C(=O)[C@H]1C(=O)N[C@@H](C(C)C)C(=O)N(C)CC(=O)N(C)[C@@H](CC(C)C)C(=O)N[C@@H](C(C)C)C(=O)N(C)[C@@H](CC(C)C)C(=O)N[C@@H](C)C(=O)N[C@H](C)C(=O)N(C)[C@@H](CC(C)C)C(=O)N(C)[C@@H](CC(C)C)C(=O)N(C)[C@@H](C(C)C)C(=O)N1C` [Valspodar, reference compound]: at human MDR1, the “% Inhibition (Efflux Ratio)” value came to 96.8%.

As for `CCOC(=O)c1ncn2c1CN(C)C(=O)c1cc(F)ccc1-2` [flumazenil], the “mRNA Induction Fold” value is given as 1.16 fold with CYP 1A2 (setting [2]); 1.31 fold in the series on CYP 1A2 (donor one, NC: flumazenil (25 μM)); 1.34 fold in the series on CYP 1A2 (setting [3]); 1.16 fold in the series with CYP 2B6 (setting [2]); 1.27 fold with CYP 2B6 (setting [3]); 1.37 fold with CYP 3A4. In addition, the “mRNA Induction Fold” value in the series with CYP 3A4 (CYP 3A4, donor CDP, NC: flumazenil (25 μM)) came out at 1.03 fold; with CYP 3A4 (CYP 3A4, donor two, NC: flumazenil (25 μM)), 0.93 fold.

As to `COc1ccc2[nH]c([S+]([O-])Cc3ncc(C)c(OC)c3C)nc2c1` (stereo not drawn) [omeprazole], the “mRNA Induction Fold” value in the series on CYP 1A2 (donor CDP, PC: omeprazole (50 μM)) is reported as 28.71 fold; with CYP 1A2 (donor one, PC: omeprazole (50 μM)), 35.53 fold; in the series on CYP 1A2 (donor two, PC: omeprazole (50 μM)), 31.06 fold.

Consider `CCC1(c2ccccc2)C(=O)NC(=O)NC1=O` [phenobarbital], for which the “mRNA Induction Fold” value with CYP 2B6 (donor CDP, PC: phenobarbital (750 μM)) is given as 8.56 fold; in the series on CYP 2B6 (donor one, PC: phenobarbital (750 μM)) it was 14.38 fold; in the series with CYP 2B6 (donor two, PC: phenobarbital (750 μM)), 8.98 fold.
